The record followed here is publication PMC6746850, “Identification and Molecular Characterization of Superoxide Dismutases Isolated From A Scuticociliate Parasite: Physiological Role in Oxidative Stress” (Scientific Reports, 2019).

One experiment deals with T1, Pd-Mn-SOD (MSD) (Philasterides dicentrarchi, UniProt A0A410JA19).
T1 construct: native enzyme, about 50 kDa activity band in anion-exchange fraction P2 on native PAGE; homodimer
T1 sequence (A0A410JA19 13-220): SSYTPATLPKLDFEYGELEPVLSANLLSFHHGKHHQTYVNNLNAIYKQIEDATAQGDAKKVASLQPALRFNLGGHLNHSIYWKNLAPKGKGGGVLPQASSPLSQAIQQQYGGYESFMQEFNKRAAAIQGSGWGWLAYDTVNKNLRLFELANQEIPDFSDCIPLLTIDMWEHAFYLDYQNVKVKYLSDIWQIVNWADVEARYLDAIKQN
In words: SOD activity staining (NBT) in native PAGE. The following applies: 100 μM inhibitor; anion-exchange fraction P2 (methods also describe 30 min treatment of live ciliates before lysis). Type of experiment: biochemical.

For another experiment, the target named is T2, Pd-Fe-SOD (FSD) (Philasterides dicentrarchi, UniProt A0A481XSU7).
T2 construct: native enzyme, 60-65 kDa activity band in anion-exchange fraction P2 on native PAGE; homodimer
T2 sequence (A0A481XSU7 22-249): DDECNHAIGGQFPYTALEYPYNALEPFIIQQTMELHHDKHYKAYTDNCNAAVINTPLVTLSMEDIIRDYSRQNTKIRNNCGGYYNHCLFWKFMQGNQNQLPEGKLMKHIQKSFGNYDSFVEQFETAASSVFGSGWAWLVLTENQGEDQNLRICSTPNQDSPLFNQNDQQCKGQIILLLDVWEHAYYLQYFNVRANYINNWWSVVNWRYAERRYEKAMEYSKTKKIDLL
In words: SOD activity staining (NBT) in native PAGE. The experiment is classed as biochemical. The following applies: 100 μM inhibitor; anion-exchange fraction P2 (methods also describe 30 min treatment of live ciliates before lysis).

Regarding `Oc1ccc(/C=C/c2cc(O)cc(O)c2)cc1` [trans-resveratrol], on Pd-Mn-SOD (MSD), the “partial inhibition at 100 μM” value is reported as “RESV partly inhibited the activity of the Pd-Mn-SOD isoenzyme”. The “complete inhibition at 100 μM” value on Pd-Fe-SOD (FSD) is reported as “completely inhibited the activity of the Pd-Fe-SOD isoenzyme”.
